Experimental data: US12558356B2, “Immunophilin binding agents and uses thereof” (The Regents of the University of California, priority 2019, dated 2026)
Like-named read-outs stand apart in the source and are kept apart here. Each block holds one compound with its values, some of them ahead of it.

What was measured:
Jurkat cells [1] = assay: CD3 crosslinking (OKT3)-triggered T cell activation, phosphotyrosine Western blot; type: cell-based; details: for Total phospho-tyrosine level and phosphorylation of TCR signaling proteins: 100 nM
[2] = tested on: 139 kinases captured by the probe in Jurkat cells; assay: XO44 chemoproteomic probe kinome occupancy in live cells; type: cell-based; details: 100 nM, among 139 kinases captured by XO44 in Jurkat cells
Jurkat cells [3] = assay: Drug washout, phosphotyrosine recovery (residence time in cells); type: cell-based; details: 100 nM for 1 h, then drug removed
K562 cells [4] = assay: Growth inhibition of K562 cells; type: cell-based
Excerpt: The unique dependency of FK506-dasatinib on FKBP proteins implied that it may be exploited to modulate the function of these molecules. […]. Meanwhile, the blocker compound […] dasatinib-treated samples (FIG. 13A, lanes 2 and 5). […].

[5] = tested on: p-Tyr signaling in Jurkat cells; assay: Phosphotyrosine / TCR signaling in Jurkat cells (Western blot); type: cell-based
Method: Jurkat cells (1×10^6/mL) were treated with 100 nM of the indicated compounds for 1 h, then were washed 3 times with PBS and resuspended in culture media. Samples were taken at the indicated time points and lysed immediately.

K562 cells [6] = assay: Growth inhibition of K562 cells; type: cell-based; remark: listed apart in the source
[7] = target: T1, Src kinase domain and FKBP12 (Homo sapiens (Human), UniProt P12931+P62942); assay: Ternary complex formation of Src, FKBP12 and compound; type: binding
T1 sequence (P12931 whole entry, looked up, species assumed, the tested form may be a part): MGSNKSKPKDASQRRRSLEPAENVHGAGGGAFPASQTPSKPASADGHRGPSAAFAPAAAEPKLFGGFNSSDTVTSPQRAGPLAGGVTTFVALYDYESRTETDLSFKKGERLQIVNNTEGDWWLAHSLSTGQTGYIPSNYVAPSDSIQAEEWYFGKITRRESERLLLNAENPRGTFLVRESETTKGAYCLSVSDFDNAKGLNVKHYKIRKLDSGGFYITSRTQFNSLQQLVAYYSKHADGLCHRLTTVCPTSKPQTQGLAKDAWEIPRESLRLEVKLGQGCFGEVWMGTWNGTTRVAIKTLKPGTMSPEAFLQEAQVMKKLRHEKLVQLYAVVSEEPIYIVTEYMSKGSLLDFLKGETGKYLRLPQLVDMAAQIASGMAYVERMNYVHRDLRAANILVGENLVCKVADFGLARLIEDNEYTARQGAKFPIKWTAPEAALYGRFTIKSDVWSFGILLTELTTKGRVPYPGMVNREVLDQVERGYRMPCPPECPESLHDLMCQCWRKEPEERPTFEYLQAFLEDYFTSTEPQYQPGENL
T1 sequence (P62942 whole entry, looked up, species assumed, the tested form may be a part): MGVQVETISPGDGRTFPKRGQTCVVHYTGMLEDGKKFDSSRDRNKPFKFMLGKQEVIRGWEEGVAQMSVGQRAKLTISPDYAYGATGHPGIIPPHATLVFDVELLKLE
Method: Fractions of 0.5 mL were collected and analyzed by SDS-PAGE.
Pulldown was performed with Jurkat cell lysate (1 mg/mL, 200 μL), supplemented with 2 μg HA-FKBP12.

FKBP12 [8] = target: T2, FKBP12 (Homo sapiens (Human), UniProt P62942); assay: FKBP12 binding assay (fluorescence polarization)
T2 sequence (P62942 whole entry): as the sequence (P62942 whole entry, looked up, species assumed, the tested form may be a part) above

Src = Src (Homo sapiens (Human), UniProt P12931); type: biochemical
Sequence of Src (P12931 whole entry, species assumed): as the sequence (P12931 whole entry, looked up, species assumed, the tested form may be a part) above

Csk = Csk (Homo sapiens (Human), UniProt P41240); assay: In vitro kinase assay, ATP at apparent Km; type: biochemical
DDR2 = DDR2 (Homo sapiens (Human), UniProt Q16832); assay: In vitro kinase assay, ATP at apparent Km; type: biochemical
Sequence of DDR2 (Q16832 22-855, species assumed): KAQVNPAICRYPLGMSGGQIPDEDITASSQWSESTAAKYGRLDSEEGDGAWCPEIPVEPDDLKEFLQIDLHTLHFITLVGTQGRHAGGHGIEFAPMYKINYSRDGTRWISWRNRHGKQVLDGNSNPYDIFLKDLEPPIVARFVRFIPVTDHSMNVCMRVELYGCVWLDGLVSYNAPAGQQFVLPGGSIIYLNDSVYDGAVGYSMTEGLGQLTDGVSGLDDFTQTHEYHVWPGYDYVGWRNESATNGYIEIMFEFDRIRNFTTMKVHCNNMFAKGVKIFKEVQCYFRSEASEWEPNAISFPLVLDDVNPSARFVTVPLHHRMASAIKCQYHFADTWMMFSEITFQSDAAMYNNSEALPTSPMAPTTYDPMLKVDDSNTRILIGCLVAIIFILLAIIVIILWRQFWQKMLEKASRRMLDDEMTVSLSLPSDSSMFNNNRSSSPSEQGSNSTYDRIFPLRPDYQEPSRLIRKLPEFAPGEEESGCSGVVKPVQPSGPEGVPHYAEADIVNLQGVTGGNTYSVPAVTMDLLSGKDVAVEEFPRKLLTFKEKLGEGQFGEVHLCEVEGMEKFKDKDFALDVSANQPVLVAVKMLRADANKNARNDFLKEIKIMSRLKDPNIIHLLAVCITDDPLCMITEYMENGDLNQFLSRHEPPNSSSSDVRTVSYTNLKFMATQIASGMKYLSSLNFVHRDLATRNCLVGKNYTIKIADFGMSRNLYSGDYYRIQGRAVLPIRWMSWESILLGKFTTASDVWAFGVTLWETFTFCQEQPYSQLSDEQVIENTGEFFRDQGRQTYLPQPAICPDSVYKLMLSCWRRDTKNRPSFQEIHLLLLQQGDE

[9] = tested on: panel of 485 protein kinases; assay: Kinase selectivity profiling; type: biochemical; details: 485 kinases, 10 nM inhibitor, 10 μM FKBP12
[10] = target: T1, Src kinase domain and FKBP12; assay: Ternary complex formation by size exclusion chromatography; type: binding; details: ~50 kDa complex
[11] = target: T1, Src kinase domain and FKBP12; assay: Differential scanning fluorimetry; type: binding
Src / HA-FKBP12 = Src / HA-FKBP12 (Homo sapiens (Human), UniProt P12931+P62942); assay: Co-immunoprecipitation of Src with HA-FKBP12 in Jurkat cell lysates; type: binding
Sequence of Src / HA-FKBP12 (P12931 whole entry, looked up): as the sequence (P12931 whole entry, looked up, species assumed, the tested form may be a part) above
Sequence of Src / HA-FKBP12 (P62942 whole entry, looked up): as the sequence (P62942 whole entry, looked up, species assumed, the tested form may be a part) above

FKBP12 [12] = target: T2, FKBP12; assay: FKBP12 binding
MCF7 cells = assay: FKBP dependence of Rapamycin/RapaLink-1 function in MCF7 cells; type: cell-based; details: MCF7 cells dosed at 50% confluency, 37° C., 24 h
Method: FIG. 4. […] MCF7 cells dosed at 50% confluency, 37° C., 24 h.

glioblastoma PDX = details: mice; Fan, Q. et al., 2017, Cancer Cell; cited from earlier work
p-S6 level in MCF7 cells = assay: Western blot of p-S6 level in MCF7 cells after combination treatment with Rapa/Rapalink and candidate compound (blockade score); type: cell-based; details: 10 nM Rapalink + 10 μM candidate compound, 24 h, p-S6 level as fraction of DMSO control
[13] = tested on: mTOR signaling in brain and skeletal muscle; assay: In vivo brain/periphery mTOR inhibition in mouse model, blocker combined with rapamycin or RapaLink-1
KRAS^G12C and CypA = KRAS^G12C and CypA (Homo sapiens (Human), UniProt P01116+P62937, G12C); assay: Complex of labeled KRAS G12C with CypA; type: binding
Ras•GDP / Sos = Ras•GDP / Sos (Homo sapiens (Human), UniProt P01112+P62937, M72C); assay: HRAS/CypA ternary complex and Sos-mediated nucleotide exchange; type: biochemical
Method: FIG. 56. […] Assay conditions: 1 μM Ras•GDP, 1 μM Mant-GDP, 20 mM EPES 7.5, 150 mM NaCl, 10 mM EDTA or 1 μM Sos. 95A is synonymous to ZZY06-031.

Ras•Raf = Ras•Raf binding pulldown; details: 100 nM KRAS
Method: FIG. 57. […] Pulldown conditions: 100 nM KRAS, 50 μg/mL BSA, 20 mM HEPES 7.5, 150 mM NaCl, 5 mM MgCl2, 1 mM […], 1% NP-40. GppNHp loaded proteins were prepared by EDTA-mediated nucleotide exchange.

[14] = Jurkat cells stimulated with OKT3
[15] = 10 μM recombinant FKBP12 in assay buffer
[16] = standard assay conditions, no FKBP12

IC50 (K562 cells [4]; Homo sapiens, K562, absent ZZY05-026 (RapaBlock)): 0.063 nM | IC50 (K562 cells [4]; Homo sapiens, K562, with 10 μM RapaBlock): 0.16 nM
Structure (SMILES): Cc1nc(Nc2ncc(C(=O)Nc3c(C)cccc3Cl)s2)cc(N2CCN(CCO)CC2)n1 [Dasatinib, dasatinib, reference compound]
Total phospho-tyrosine level and phosphorylation of TCR signaling proteins (Jurkat cells [1]; [14]): dampened | Number of kinases inhibited >70% [2]: 9 | Time after drug washout to restored phosphotyrosine signal (Jurkat cells [3]): ≤ 1 h

Structure (SMILES): CO[C@H]1C[C@@H](C)C/C(C)=C/[C@@H](CCCC(=O)N2CCN(c3cc(Nc4ncc(C(=O)Nc5c(C)cccc5Cl)s4)nc(C)n3)CC2)C(=O)C[C@H](O)[C@@H](C)[C@@H](/C(C)=C/[C@@H]2CC[C@@H](O)[C@H](OC)C2)OC(=O)[C@@H]2CCCCN2C(=O)C(=O)[C@]2(O)O[C@H]1[C@@H](OC)C[C@H]2C [FK506-dasatinib]
inhibition of TCR signaling / cellular activity [5]: potently inhibits TCR signaling | cellular retention time ([5]; Jurkat cells, 1 h treatment then washout, monitored over 24 h): long cellular retention time | concentration inhibiting growth of K562 cells (K562 cells [6]): sub-nanomolar | growth inhibitory activity in presence of RapaBlock (K562 cells [6]; with RapaBlock): diminished by RapaBlock | ternary complex formation [7]: forms a stable ternary complex | Kd (FKBP12 [8]; fluorescence polarization assay, read-out: Kd (binding to FKBP12)): 23 nM | Potency of inhibition upon FKBP12 supplementation (Src; [15]): equipotent | IC50 compared to dasatinib (Src; [16]): more than ten-fold greater | Potency of inhibition upon FKBP12 supplementation (Csk; [15]): equipotent | IC50 compared to dasatinib (Csk; [16]): more than ten-fold greater | Extent of kinase inhibition at 1 μM (DDR2; 10 μM recombinant FKBP12, 1 μM inhibitor): failing to fully inhibit | Potency of inhibition upon FKBP12 supplementation (DDR2; [15]): inferior to dasatinib | IC50 compared to dasatinib (DDR2; [16]): more than ten-fold greater | Number of kinases inhibited >70% by both inhibitors [9]: 23 | Complex formation of Src kinase domain and FKBP12 [10]: induced the formation of a stable complex | Stabilization of both proteins toward thermal denaturation [11]: to a greater extent than dasatinib alone | Co-immunoprecipitation of Src with HA-FKBP12 (Src / HA-FKBP12): co-immunoprecipitated | Inhibition of phosphotyrosine signaling in the presence of blocker (Jurkat cells [1]; 100 nM FK506-dasatinib + 10 μM RapaBlock): completely neutralized | Total phospho-tyrosine level and phosphorylation of TCR signaling proteins (Jurkat cells [1]; [14]): dampened | Lowest effective concentration (Jurkat cells [1]; [14]): ≤ 10 nM | EC50 (Jurkat cells [1]; Jurkat cells stimulated with OKT3, read-out: EC50 (phosphotyrosine signal)): 3.4 nM | Number of kinases inhibited >70% [2]: 9 | Time after drug washout to restored phosphotyrosine signal (Jurkat cells [3]): > 24 h | Fold increase of IC50 on addition of RapaBlock (K562 cells [4]; 10 μM RapaBlock): > 200 fold | IC50 (K562 cells [4]; absent ZZY05-026 (RapaBlock)): 0.053 nM | IC50 (K562 cells [4]; with 10 μM RapaBlock): 10.2 nM | kinase inhibition (Src, Csk and DDR2): attenuated kinase inhibition | FKBP12 binding (FKBP12 [12]): maintains potent FKBP12 binding

Structure (SMILES): CO[C@@H]1C[C@@H]2CC[C@@H](C)[C@@](O)(O2)C(=O)C(=O)N2CCCC[C@@H]2C(=O)O[C@H]([C@H](C)C[C@H]2CC[C@H](OCCOCc3cn(CCOCCOCCOCCOCCOCCOCCOCCOCCC(=O)NCCCCn4nc(-c5ccc6oc(N)nc6c5)c5c(N)ncnc54)nn3)[C@H](OC)C2)CC(=O)[C@H](C)/C=C(\C)[C@H](O)[C@@H](OC)C(=O)[C@H](C)C[C@H](C)/C=C/C=C/C=C/1C [RapaLink-1]
dependence of function on FKBP (MCF7 cells): FKBP is essential for the function | growth of glioblastoma PDX (glioblastoma PDX): suppresses growth

Structure (SMILES): CO[C@H]1C[C@@H]2CC[C@@H](C)[C@@](O)(O2)C(=O)C(=O)N2CCCC[C@H]2C(=O)O[C@H]([C@H](C)C[C@@H]2CC[C@@H](O)[C@H](OC)C2)CC(=O)[C@H](C)/C=C(\C)[C@@H](O)[C@@H](OC)C(=O)[C@H](C)C[C@H](C)/C=C/C=C/C=C/1C [Rapamycin, rapamycin]
dependence of function on FKBP (MCF7 cells): FKBP is essential for the function

Structure (SMILES): CO[C@H]1C/C(C)=C/[C@@H](CCCc2ccccn2)C(=O)C[C@H](O)[C@@H](C)[C@@H](/C(C)=C/[C@@H]2CC[C@@H](O)[C@H](OC)C2)OC(=O)[C@@H]2CCCCN2C(=O)C(=O)[C@]2(O)O[C@H]([C@@H](OC)C1)[C@@H](OC)C[C@H]2C [ZZY05-085]
Kd (FKBP12 [8]): 1.5 nM | RapaLink-1 Blockade (p-S6 level in MCF7 cells): 3 (>70%) | In Vivo ([13]; combination with Rapalink-1, dose not given, brain): Appears to have blocked Rapalink-1 in brain

Kd (FKBP12 [8]; read-out: Kd FKBP12): 2.5 nM
Structure (SMILES): CO[C@H]1C/C(C)=C/[C@@H](CCCc2cccc[n+]2[O-])C(=O)C[C@H](O)[C@@H](C)[C@@H](/C(C)=C/[C@@H]2CC[C@@H](O)[C@H](OC)C2)OC(=O)[C@@H]2CCCCN2C(=O)C(=O)[C@]2(O)O[C@H]([C@@H](OC)C1)[C@@H](OC)C[C@H]2C [ZZY05-092 / ZZY06-041]
RapaLink-1 Blockade (p-S6 level in MCF7 cells): 3 (>70%) | In Vivo ([13]; 1 mg/kg Rapalink-1 + 40 mg/kg compound, muscle and brain): Dose: 1 mg/kg Rapalink-1 + 40 mg/kg ZZY05- 092 Blocks Rapalink-1 in muscle; Potentiates Rapalink-1 in brain

Structure (SMILES): C=CC(=O)N1CCN(c2nc(NCCC(=O)NCCNC(=O)CCC[C@@H](C)[C@@H](O)[C@H]3C(=O)N[C@@H](CC)C(=O)N(C)CC(=O)N(C)[C@@H](CC(C)C)C(=O)N[C@@H](C(C)C)C(=O)N(C)[C@@H](CC(C)C)C(=O)N[C@@H](C)C(=O)N[C@H](C)C(=O)N(C)[C@@H](CC(C)C)C(=O)N(C)[C@@H](CC(C)C)C(=O)N(C)[C@@H](C(C)C)C(=O)N3C)nc3c(F)c(-c4c(O)cccc4F)c(Cl)cc23)CC1 [ZZY07-014]
melting curve of KRAS•CypA•compound complex (KRAS^G12C and CypA): 2-stage melting curve

Structure (SMILES): C=CC(=O)Nc1cc(Cl)cc(NC(=O)c2cnn(-c3ccc(OCC(=O)N4CCN(C(=O)CCC[C@@H](C)[C@@H](O)[C@H]5C(=O)N[C@@H](CC)C(=O)N(C)CC(=O)N(C)[C@@H](CC(C)C)C(=O)N[C@@H](C(C)C)C(=O)N(C)[C@@H](CC(C)C)C(=O)N[C@@H](C)C(=O)N[C@H](C)C(=O)N(C)[C@@H](CC(C)C)C(=O)N(C)[C@@H](CC(C)C)C(=O)N(C)[C@@H](C(C)C)C(=O)N5C)CC4)cc3)c2C(F)(F)F)c1 [ZZY08-058]
ternary complex formation with HRAS and CypA (Ras•GDP / Sos): forms a ternary complex | Sos-mediated nucleotide exchange (Ras•GDP / Sos; 1 μM Ras•GDP, 1 μM Mant-GDP, 10 mM EDTA or 1 μM Sos): inhibits Sos-mediated nucleotide exchange | Ras•Raf binding of HRAS•CypA•compound ternary complex (Ras•Raf): does not seem to impair Ras•Raf binding
